Test results taken from PMC6962393, “Targeting the tumor vasculature with engineered cystine-knot miniproteins” (Nature Communications, 2020).
Where no end group is shown, it is not given here. The star is where a group is joined. Biotin = O=C1N[C@H]2[C@H](CS[C@H]2CCCCC(=O)*)N1

Experiments:
[1] = test system: EDB in U-87 MG glioblastoma xenograft tumor sections; assay: Immunofluorescence staining of U-87 MG tumor tissue sections; set-up: species or system human U-87 MG grown as mouse xenograft; conditions: biotinylated miniprotein tetramerized with Cy3-labeled streptavidin, 6 µm sections
Protocol: Cryopreserved tumor pieces were cut in 6-µm-thick sections, fixed in ice cold acetone for 5 min, and air-dried. Slides were then blocked in PBS with 3% BSA at RT for 5 min. For staining of EDB, 1 µg of the respective biotinylated cystine-knot miniprotein was incubated with 2.9 µg streptavidin-Cy3 conjugate (Rockland Immunochemicals) at RT for 30 min. The pre-formed complex or 0.1 µg AF680-(MC-FN-010)3 and anti-mouse CD31 antibody (RB-10333-P1, Thermo Fisher) diluted 1:100 in PBS with 1% BSA was then added to the tumor sections and incubated for 30 min at 37 °C. Afterwards, slides were washed three times with PBS containing 1% BSA. CD31 staining of sections treated with pre-formed complex was performed with a rat anti-mouse CD31 IgG antibody (102416; BioLegend) diluted 1:100 in PBS with 1% BSA for 30 min at 37 °C and detected with a secondary […] IgG-Cy3 antibody (111-165-003; Jackson ImmunoResearch) diluted 1:400 in PBS with 1% BSA for 30 min at 37 °C. After three washing steps in PBS, cell nuclei were stained with Höchst 33342 (Thermo Fisher Scientific) diluted 1:5000 in PBS for 30 min at RT. Slides were washed again as described above and covered with coverslips in a thin layer of mounting medium (Dako). Images were captured with a Zeiss Apotome microscope (Carl Zeiss) and analyzed with ZEN software (Carl Zeiss).

[2] = biological target: T1, biotinylated human FN-67B89 (Homo sapiens, UniProt P02751); assay: Surface plasmon resonance, binding kinetics to FN-67B89; conditions: for binding of tag-free variant to FN-67B89 by SPR: Fig 2d, multi-cycle kinetics, 50 to 1000 nM
T1 construct: flanked by its surrounding type III domains (FN-67B89, amino acid G1080-E1455); made in house; host or cells: E. coli BL21 (DE3), pET-21a
T1 sequence (P02751 1080-1546): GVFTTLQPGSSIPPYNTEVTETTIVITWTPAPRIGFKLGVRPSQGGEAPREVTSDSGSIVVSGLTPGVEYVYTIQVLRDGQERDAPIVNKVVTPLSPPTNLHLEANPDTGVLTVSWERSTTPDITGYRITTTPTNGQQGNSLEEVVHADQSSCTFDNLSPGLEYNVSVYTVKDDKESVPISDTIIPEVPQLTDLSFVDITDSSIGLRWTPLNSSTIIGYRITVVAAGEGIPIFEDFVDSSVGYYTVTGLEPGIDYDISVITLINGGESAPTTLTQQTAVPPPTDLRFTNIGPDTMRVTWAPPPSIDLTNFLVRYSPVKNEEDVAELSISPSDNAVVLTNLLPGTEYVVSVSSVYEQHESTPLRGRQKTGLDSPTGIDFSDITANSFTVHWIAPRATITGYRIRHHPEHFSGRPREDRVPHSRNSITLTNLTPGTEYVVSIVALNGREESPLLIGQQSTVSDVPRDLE
Protocol: Binding kinetics of monomeric and trimeric cystine-knot miniprotein ligands to its target protein was determined using a Biacore T-100 device (GE Healthcare Life Science) with PBS-T as running buffer. For this, the biotinylated FN-67B89 protein (200–300 µg/mL) was captured by binding to a flow cell of an SA sensor chip (GE Healthcare Life Science). To analyze monomeric ligands, an immobilized target density of maximum 750 response units (RU) was applied and for trimeric variants a RU of maximum 400 was aimed for. Binding analysis of monomeric ligands was performed using a multi-cycle kinetic method with concentrations ranging from 50 to 4000 nM. A cycle started with an association period of 90 s, followed by a dissociation period of 420 s and a final regeneration step. Kinetic measurement was conducted applying a flow rate of 20 µL/min. Trimeric variants were analyzed under the same association and dissociation conditions, but using the single-cycle kinetic measurement mode in a constant flow of […]. In this case the analyte concentration was between 1.25 and 10 nM. Binding kinetics and steady-state analysis were calculated using a global kinetic fit model (1:1 Langmuir, Biacore T-100 Evaluation Software; GE Healthcare Life Science).

FN-B = assay: Hit identification ranking score (FN-B to BSA ELISA signal normalized to expression rate); assay type: binding, human; conditions: signal (FN-B) to noise (BSA) ELISA ratio normalized to expression rate of Trx-cystine-knot miniprotein; MCopt 1.0 library
Protocol: Single colonies were picked, sequenced, and transferred to a 96-well plate for small-scale expression in 1 mL autoinduction medium (MagicMedia™; Thermo Fisher Scientific). Protein production was conducted overnight at 30 °C and 220 rpm. Cells were harvested by centrifugation at 3000 × g for 15 min, lysed via incubation in buffer (20 mM Tris, 2 mM MgCl2, 20 mM NaCl, pH 8) containing 0.1 mg/mL lysozyme (Merck Millipore) and 5 U/mL benzonase (Merck Millipore) combined with a freeze–thaw cycle, and heated for 10 min at 80 °C. After a final centrifugation (3000 × g, 15 min, 4 °C) to remove cell debris, the supernatant was collected for E-PAGE™ and binding analysis. E-PAGE^TM (Life Technologies) was used as a high throughput gel system to simultaneously analyze 96-probes in parallel for a quantification of produced and heat-purified proteins. E-PAGE^TM analysis was performed according to the manufacturer's instructions. ELISA was used as a technique to analyze protein–protein interactions. […] The wells were washed three times with PBS-T (1× PBS with 0.1% (w/v) Tween-20), blocked with 1× Casein buffer (Sigma Aldrich) diluted in PBS for 2 h at RT, and washed again as described. 20 µL of supernatant containing the respective heat-purified fusion protein were added to 80 µL PBS-T or 200 nM of MC-Myc-010 fusion protein (wells with anti-c-myc antibody) diluted in PBS-T, applied to the cavities, and incubated for 1 h at 4 °C. After three times of washing with PBS-T, binding of the respective variant was detected with a horseradish peroxidase (HRP)-conjugated anti-S-tag antibody (ab18589 or ab19324; Abcam) 1:2000 diluted in PBS. Enzymatic reaction was measured with TMB as a chromogenic substrate and stopped with 0.2 M HCl after approximately 5 min. The measurement of absorbance at 450 nm was performed using an Infinite M200 PRO Microplate Reader (Tecan). […]
Ranking scores were calculated on the basis of the signal (FN -B) to noise (BSA)
ratios determined via ELISA and were further normalized to the expression rate of Trx -cystine-knot […]

[3] = test system: FN-6789 (type III domains 6–9 without EDB); assay: ELISA binding of Trx-cystine-knot miniproteins to off-target control FN-6789; set-up: species or system human; conditions: FN-6789, streptavidin, milk powder, BSA
[4] = SPR Biacore T-100, biotinylated human FN-67B89 on streptavidin chip, PBS-T, 1:1 Langmuir fit

MC-FN-0115-bio: biotinylated MC-FN-0115, tetramerized with Cy3-labeled streptavidin for staining (Biotin-PMCTQRANRIAACRRDSDCTGACICRGNGYCG; also: cystine-knot disulfides, pairing not given here)
staining of U-87 MG tumor sections [1]: did not stain

PMCTQRKNRIRLCRRDSDCTGACICRGNGYCG (also: bicyclic or more (positions not given here)) [MC-FN-010]
binding of tag-free variant to FN-67B89 by SPR [2]: detectable binding activity
affinity / binding constant towards biotinylated FN-67B89 (range in words) ([2]; SPR): single-digit micromolar range
Kd [2, 4]: 1580 nM
Koff [2, 4]: 0.07831 s⁻¹
Kon ([2]; SPR Biacore T-100, biotinylated human FN-67B89 on streptavidin chip, PBS-T, 1:1 Langmuir fit, monomers multi-cycle, trimers single-cycle): 49500 M⁻¹ s⁻¹
Ranking value (FN-B): 2.6 to 0.6

WKCQPTNGYRIRCRRDSDCPGDCICRGNGYCG (also: bicyclic or more (positions not given here)) [MC-FN-030, cystine-knot miniprotein clone from MCopt 1.0 library]
binding of tag-free variant to FN-67B89 by SPR [2]: no detectable binding
Ranking value (FN-B): 2.7 to 1.6

WTCTKKYPNTISCRRDSDCRVTCICRGNGYCG (also: bicyclic or more (positions not given here)) [MC-FN-020, cystine-knot miniprotein clone from MCopt 1.0 library, without R-I/V-R-(L) motif]
binding to off-target and control proteins [3]: strong binding
Ranking value (FN-B): 3.7 to 1.7
